In patent US11045482B2, “Use of glucocorticoid receptor modulators in the treatment of catecholamine-secreting tumors” (Corcept Therapeutics, Inc., priority 2017, dated 2021):

Columns and labels:
PNMT mRNA = settings: intact rats; cited from earlier work
[1] = system: metastatic pheochromocytoma associated with ectopic ACTH secretion; test: Case of a person with metastatic pheochromocytoma and Cushing syndrome given mifepristone (Example 1); type: in vivo, human; settings: despite high dose of atenolol and phenoxybenzamine, before mifepristone
Description: A person with metastatic pheochromocytoma associated with ectopic ACTH secretion unresponsive to conventional chemotherapy with CVD (cyclophosphamide, vincristine and dacarbazine) and Sunitinib (tyrosine kinase inhibitors) was enrolled in a phase 2 study with a somatostatin analog. […] At the same time the diagnosis of Cushing syndrome was made and 300 mg of Mifepristone was added to their regimen and the dose was further increased to 600 mg daily two weeks later. […] The plasma epinephrine level after 2 weeks of therapy with mifepristone was decreased by 50%, and the plasma metanephrine level was decreased by 25% after 9 weeks of therapy.

[2] = system: pheochromocytoma crisis (PC); settings: cited from earlier work
[3] = system: PNMT mRNA and enzyme expression; settings: rats, depletion of corticosteroids by hypophysectomy; cited from earlier work

For CC#CC1(O)CC[C@H]2[C@@H]3C=C(C)C4=CC(=O)C=C[C@]4(C)[C@H]3C(O)C[C@@]21C (stereo partly drawn) [RU28362, 11,17-dihydroxy-6-methyl-17-(1-propynyl)androsta-1,4,6-triene-3-one], which “PNMT mRNA levels” value (PNMT mRNA) is on record?
The value was “rise markedly”.

With CC(C)NCC(O)COc1ccc(CC(N)=O)cc1 (stereo not drawn) [atenolol] as the compound, how does the “catecholamine excess symptoms (palpitations, tremors and panic attacks)” value [1] read?
Its value is “continued to experience significant catecholamine excess symptoms”.

Which pheochromocytoma crisis cases ([2]; 1 mg given as a DST in patients with pheochromocytoma) does the source give for C[C@@H]1C[C@H]2[C@@H]3CCC4=CC(=O)C=C[C@]4(C)[C@@]3(F)[C@@H](O)C[C@]2(C)[C@@]1(O)C(=O)CO [dexamethasone] here?
Its pheochromocytoma crisis cases is “no cases have been reported”.

And the pheochromocytoma crisis ([2]; larger doses, as low as 2 mg)?
Its pheochromocytoma crisis is “may trigger a PC”.

Which “catecholamine excess symptoms (palpitations, tremors and panic attacks)” value [1] does the source give for CC(COc1ccccc1)N(CCCl)Cc1ccccc1 (stereo not drawn) [phenoxybenzamine] here?
The value was “continued to experience significant catecholamine excess symptoms”.

Which “decrease of PNMT mRNA and enzyme expression after hypophysectomy” value [3] does the source give for “adrenocorticotropin: stimulates endogenous glucocorticoid production (SYSMEHFRWGKPVGKKRRPVKVYPNGAEDESAEAFPLEF; Corticotropin; UniProt P01189 138-176, looked up)” here?
The value was “reversed”.
